Experimental data: patent publication US8835440B2, “Cyclic pyrimidin-4-carboxamides as CCR2 receptor antagonists for treatment of inflammation, asthma and COPD” (Boehringer Ingelheim International GmbH, priority 2008, dated 2014)

Molecular target: T1, CCR2 (Homo sapiens, UniProt P41597)
T1 construct: Membranes were prepared from THP-1 cells; endogenous in cells; host or cells: THP-1 cells (membrane preparation)
T1 sequence (P41597 1-360 isoform P41597-2): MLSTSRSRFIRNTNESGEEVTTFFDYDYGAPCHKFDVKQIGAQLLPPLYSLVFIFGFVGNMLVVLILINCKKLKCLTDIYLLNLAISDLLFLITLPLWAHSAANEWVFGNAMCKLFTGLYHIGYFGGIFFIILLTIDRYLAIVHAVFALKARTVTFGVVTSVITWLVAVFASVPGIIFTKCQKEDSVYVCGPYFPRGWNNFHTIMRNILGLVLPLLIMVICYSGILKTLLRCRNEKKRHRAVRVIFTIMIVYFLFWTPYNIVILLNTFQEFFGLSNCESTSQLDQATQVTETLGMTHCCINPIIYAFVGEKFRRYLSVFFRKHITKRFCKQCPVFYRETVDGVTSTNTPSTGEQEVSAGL
Assay: CCR2 receptor membrane binding assay ([125I]MCP-1, THP-1 cell membranes, SPA beads)
Settings: for remaining activity at 10 µM: @ 10 μM test compound, THP-1 membranes, read-out: CCR2 % ctrl @ 10 μM; for Ki: dissociation constant hKi, [125I]MCP-1 binding to THP-1 membranes
Description: The above exemplary substances have been tested for binding to CCR2 using a binding assay as outlined herein below:
THP-1 cells (human acute monocytic leukaemia cells) were cultured under standardized conditions at 37° C. and 5% CO2 in a humidified incubator. THP-1 cells were cultivated in RPMI 1640 medium (Gibco 21875) containing 1% MEM-NEAA (Gibso 11140) 2 mM L-glutamine, 1.5 g/L sodium bicarbonate, 4.5 g/L glucose, 10 mM HEPES and 1.0 mM sodium pyruvate, 90%; 10% fetal calf serum (FCS Gibco 10500-064).
Membranes were prepared from THP-1 cells. THP-1 cells were centrifuged at 300×g at 4° C. for 10 min. The cell pellet was resuspendet in Phosphate Buffer Saline (PBS, including 10 μM Pefabloc and a protease inhibitor mix ‘complete’, Boehringer Mannheim (1 tablet/50 ml)), to a concentration of […]. The membrane preparation was performed by disrupting the cells by nitrogen […] (at 50 bar, for 1 h) in a “Nitrogen Bombe” (Parr Instrument). Cell debris was removed by centrifugation (800×g at 4° C., 1 min). The supernatant was centrifuged at 80000×g, 4° C. for 30 min to sediment the cell membranes. Usually 50 mg of protein (Bradford assay) were yielded from 1×10E9 cells. The membranes were resuspendet in 25 mM HEPES, 25 mM MgCl2, 1 mM CaCl2, 10% Glycerine for storage in aliquots at −80° C. in 25 mM HEPES, 25 mM MgCl2, 1 mM CaCl2, 10% Glycerine and stored at −80° C.
Receptor Membrane Binding Assay:
Perkin Elmer NEX 332 Jod 125 MCP-1, Stock: 2200 Ci/mmol solved in 2000 μl assay buffer, stored at −20° C. THP-1 membrane were adjusted with 25 mM HEPES, pH 7.2; 5 mM MgCl2; 0.5 mM CaCl2; 0.2% BSA assay buffer to a concentration of […]. Amersham Biosciences PVT-WGA Beads (RPNQ0001) were adjusted with assay buffer to a concentration of 0.24 mg/30 μl. For preparation of the membrane-bead-suspension membranes and beads were incubated for 30 min at RT under rotation (60 rpm) with a ratio of 1:2. Test compounds dissolved in 100% DMSO to a concentration of 10 mM and are further diluted with 100% DMSO to 1 mM. All additional compound dilutions were obtained with assay buffer, final 1% DMSO. Compounds, membrane-bead-suspension and [125I]MCP-1 (ca. 25000 cpm/10 μl) were incubated. Bound radioactivity was determined by scintillation counter after 8 h. Determination of affinity of test compounds (dissociation constant hKi) is calculated by iterative fitting of experimental data using the “easy sys” program, which is based on law of mass action (Schittkowski K. (1994), Numerische Mathematik, Vol. 68, 129-142).

| SMILES | remaining activity at 10 µM [%] | Ki [µM] |
| --- | --- | --- |
| Cc1c(NCc2ccc(C(F)(F)F)c(Cl)c2)ncnc1C(=O)N1CCC(N2CCOCC2)CC1 [Example 47] | 14 | 0.222 |
| Cc1c(NCc2ccc(F)c(F)c2)ncnc1C(=O)N1CCC(N2CCOCC2)CC1 [Example 48] | 26 | 1.78 |
| Cc1c(NCc2ccc(Cl)cc2)ncnc1C(=O)N1CCC(N2CCC(N(C)S(C)(=O)=O)CC2)CC1 [Example 49] | 7 | 0.097 |
| Cc1c(NCC2COc3ccccc3C2)ncnc1C(=O)N1CCC(N2CCOCC2)CC1 (stereo not drawn) [Example 50] | 22 | 0.928 |
| Cc1c(NCC2CCN(c3ccccc3)C2)ncnc1C(=O)N1CCC(N2CCOCC2)CC1 (stereo not drawn) [Example 51] | 13 | 0.29 |
| Cc1c(NCc2ccc(C(C)(C)C)cc2)ncnc1C(=O)N1CCC(N2CCOCC2)CC1 [Example 52] | 12 | 0.175 |
| Cc1c(NCCc2ccc(Cl)c(Cl)c2)ncnc1C(=O)N1CCC(N2CCC(N(C)S(C)(=O)=O)CC2)CC1 [Example 53] | 4 | 0.018 |
| Cc1c(NCc2ccc(C(C)(C)C)nc2)ncnc1C(=O)N1CCC(N2CCC(N(C)S(C)(=O)=O)CC2)CC1 [Example 54] | 13 | 0.356 |
| Cc1cc(CNc2ncnc(C(=O)N3CCC(N4CCC(N(C)S(C)(=O)=O)CC4)CC3)c2C)ccc1F [Example 55] | 17 | 0.2 |
| CCc1ccc(CNc2ncnc(C(=O)N3CCC(N4CCC(N(C)S(C)(=O)=O)CC4)CC3)c2C)cc1 [Example 56] | 8 | 0.127 |
| Cc1c(NCC2COc3ccccc3C2)ncnc1C(=O)N1CCC(N2CCC(N(C)S(C)(=O)=O)CC2)CC1 (stereo not drawn) [Example 57] | 10 | 0.093 |
| Cc1c(NCC2CCN(c3ccccc3)CC2)ncnc1C(=O)N1CCC(N2CCC(N(C)S(C)(=O)=O)CC2)CC1 [Example 58] | 12 | 0.336 |
| Cc1ccc(CNc2ncnc(C(=O)N3CCC(N4CCC(N(C)S(C)(=O)=O)CC4)CC3)c2C)cc1Cl [Example 59] | 5 | 0.055 |
| Cc1c(NCC2CCN(c3ccccc3)C2)ncnc1C(=O)N1CCC(N2CCC(N(C)S(C)(=O)=O)CC2)CC1 (stereo not drawn) [Example 60] | 5 | 0.044 |
| Cc1c(NCC2Cc3ccccc3C2)ncnc1C(=O)N1CCC(N2CCC(N(C)S(C)(=O)=O)CC2)CC1 [Example 61] | 2 | 0.046 |
| Cc1c(NCc2ccc(C(F)(F)F)c(Cl)c2)ncnc1C(=O)N1CCC(N2CCC(N(C)S(C)(=O)=O)CC2)CC1 [Example 62] | 3 | 0.038 |
| Cc1c(NCc2ccc(Cl)c(F)c2)ncnc1C(=O)N1CCC(N2CCC(N(C)S(C)(=O)=O)CC2)CC1 [Example 63] | 7 | 0.054 |
| Cc1c(NCc2ccc(C(C)C)cc2)ncnc1C(=O)N1CCC(N2CCC(N(C)S(C)(=O)=O)CC2)CC1 [Example 64] | 8 | 0.065 |
| Cc1ccc(CNc2ncnc(C(=O)N3CCC(N4CCC(N(C)S(C)(=O)=O)CC4)CC3)c2C)cc1F [Example 65] | 8 | 0.176 |
| Cc1c(NCc2cccc(Cl)c2)ncnc1C(=O)N1CCC(N2CCC(N(C)S(C)(=O)=O)CC2)CC1 [Example 66] | 8 | 0.138 |
| COc1ccc(CNc2ncnc(C(=O)N3CCC(N4CCC(N(C)S(C)(=O)=O)CC4)CC3)c2C)cc1 [Example 67] | 27 | 1.42 |

| SMILES | remaining activity at 10 µM [%] | Ki [µM] |
| --- | --- | --- |
| Cc1c(NCc2ccc(F)c(Cl)c2)ncnc1C(=O)N1CCC(N2CCC(N(C)S(C)(=O)=O)CC2)CC1 [Example 68] | 7 | 0.098 |
| Cc1c(NCc2ccc(C(C)(C)C)cc2)ncnc1C(=O)N1CCC(N2CCC(NS(C)(=O)=O)CC2)CC1 [Example 69] | 7 | 0.063 |
| Cc1c(NCCc2ccc(OC(F)(F)F)cc2)ncnc1C(=O)N1CCC(N2CCC(NS(C)(=O)=O)CC2)CC1 [Example 70] | 6 | 0.08 |
| Cc1c(NCC2COc3ccccc3C2)ncnc1C(=O)N1CCC(N2CCC(NS(C)(=O)=O)CC2)CC1 (stereo not drawn) [Example 71] | 12 | 0.117 |
| Cc1c(NCc2ccc(Cl)c(Cl)c2)ncnc1C(=O)N1CCC(N2CCC(NS(C)(=O)=O)CC2)CC1 [Example 72] | 7 | 0.081 |
| Cc1c(NCC2Cc3ccccc3C2)ncnc1C(=O)N1CCC(N2CCC(NS(C)(=O)=O)CC2)CC1 [Example 73] | 2 | 0.038 |
| Cc1c(NCC2CCN(c3ccccc3)C2)ncnc1C(=O)N1CCC(N2CCC(NS(C)(=O)=O)CC2)CC1 (stereo not drawn) [Example 74] | 2 | 0.071 |
| Cc1c(NCc2ccc(C(F)(F)F)c(Cl)c2)ncnc1C(=O)N1CCC(N2CCC(NS(C)(=O)=O)CC2)CC1 [Example 75] | 7 | 0.067 |
| Cc1c(NCc2ccc(Cl)c(F)c2)ncnc1C(=O)N1CCC(N2CCC(NS(C)(=O)=O)CC2)CC1 [Example 76] | 12 | 0.132 |
| CNC(=O)[C@@H]1CCN(C2CCN(C(=O)c3ncnc(NCc4ccc(C(F)(F)F)c(Cl)c4)c3C)CC2)C1 [Example 77] | 27 | 0.65 |
| CNC(=O)[C@@H]1CCN(C2CCN(C(=O)c3ncnc(NCc4ccc(Cl)c(F)c4)c3C)CC2)C1 [Example 78] | 28 | 0.74 |
| Cc1nc(NCC2COc3ccccc3C2)c(C)c(C(=O)N2CCC(N3CCC(N(C)S(C)(=O)=O)CC3)CC2)n1 (stereo not drawn) [Example 79] | 10 | 0.089 |
| Cc1nc(NCc2ccc(Cl)c(F)c2)c(C)c(C(=O)N2CCC(N3CCC(N(C)S(C)(=O)=O)CC3)CC2)n1 [Example 80] | 7 | 0.053 |
| Cc1nc(NCc2ccc(C(F)(F)F)c(Cl)c2)c(C)c(C(=O)N2CCC(N3CCC(N(C)S(C)(=O)=O)CC3)CC2)n1 [Example 81] | 8 | 0.052 |
| Cc1nc(NCc2ccc(Cl)c(Cl)c2)c(C)c(C(=O)N2CCC(N3CCC(N(C)S(C)(=O)=O)CC3)CC2)n1 [Example 82] | 4 | 0.043 |
| Cc1nc(NCc2ccc(C(C)(C)C)cc2)c(C)c(C(=O)N2CCC(N3CCC(N(C)S(C)(=O)=O)CC3)CC2)n1 [Example 83] | 3 | 0.043 |
| Cc1nc(NCC2CCN(c3ccccc3)C2)c(C)c(C(=O)N2CCC(N3CCC(N(C)S(C)(=O)=O)CC3)CC2)n1 (stereo not drawn) [Example 84] | 4 | 0.069 |
| Cc1nc(NC[C@@H]2CCN(c3ccccc3)C2)c(C)c(C(=O)N2CCC(N3CCC(N(C)S(C)(=O)=O)CC3)CC2)n1 [Example 85] | 13 | 0.055 |
| Cc1nc(NCC2Cc3ccccc3C2)c(C)c(C(=O)N2CCC(N3CCC(N(C)S(C)(=O)=O)CC3)CC2)n1 [Example 86] | 3 | 0.039 |
| Cc1nc(NCC2CCCN(c3ccccc3)C2)c(C)c(C(=O)N2CCC(N3CCC(N(C)S(C)(=O)=O)CC3)CC2)n1 (stereo not drawn) [Example 87] | 9 | 0.078 |
| Cc1nc(NCc2ccc(Cl)c(Cl)c2)c(C)c(C(=O)N2CCC(N3CCC(NS(C)(=O)=O)CC3)CC2)n1 [Example 88] | 6 | 0.058 |
